{"source": "patent US20030113815A1", "about": "“Canine peroxisome proliferator activated receptor gamma” (Pfizer Inc., priority 2001, published 2003)", "tested_on": "TNF-α expression in canine DH82 cells", "test": "Effect of PPARγ agonist on TNF-α mRNA levels (Q-PCR) in canine DH82 cells", "assay_type": "cell-based", "conditions": "two hours, normalized to GAPDH", "protocol": "Canine DH82 cells (ATCC No. CRL-10389) were cultured in RPMI 1640 medium containing 2 mM L-glutamine, 25 mM Hepes, 10% fetal bovine serum (FBS) and 1× antimycotic at 37° C., 95% humidity, and 5% CO2. Cells were treated with 10 nM PMA (Sigma-Aldrich, St. Louis, Mo.), PMA (10 nM) plus darglitazone (10 uM), and darglitazone (10 μM), respectively for two hours. After treatment, cell RNA lysis buffer was added to the cells. Samples were loaded into MagNa Pure™ machine (F. Hoffmann-La Roche, Basel, Switzerland). MagNa Pure LC™ RNA isolation Kit II (F. Hoffmann-La Roche) was used for isolation of total RNA from culture cells. First strand cDNA synthesis kit for RT-PCR (F. Hoffmann-La Roche) was used to synthesize cDNA. Samples were incubated at 25° C. for 10 minutes and then at 42° C. for 60 minutes, denatured at 90° C. for 5 minutes and cooled to 4° C. for 1-2 hr or at −20° C. for longer periods. Quantification PCR (Q-PCR) was performed using the Lightcycler Faster DNA Master SYBR Green 1™ kit (F. Hoffmann-La Roche) using canine TNF-α primers (forward primer: 5′ […], reverse primer: 5′ […]). […] For quantification, melting points were measured every 0.2° C. from 60° C. to 99° C. using fluorescence detection. […]"}
{"smiles": "Cc1oc(-c2ccccc2)nc1CCC(=O)c1ccc(CC2SC(=O)NC2=O)cc1", "note": "(centres unmarked) [darglitazone]", "values": [{"measurement": "reduction of TNF-α expression in PMA stimulated cells", "setting": "PMA 10 nM plus darglitazone 10 uM, FIG. 2B", "value": "about 15%"}, {"measurement": "reduction of TNF-α expression from the basal level", "setting": "unstimulated, darglitazone 10 μM, control basal level = 100%, FIG. 2A", "value": "about 40%"}]}
